Measured values reported in US9023821B2, “Use of MicroRNA for treating diseases associated with a dysfunction of the cilia in multiciliated epithelial cells” (Centre National de la Recherche Scientifique, priority 2009, dated 2015).

How the values were obtained:
[1] = test system: human airway epithelial cells (HAECs); assay: Agilent miRNA chips, miRNA expression at four stages of differentiation of HAECs; conditions: for Modulation (ratio of the level of intensity of expression in log2 in two stages of differentiation) measured with the Agilent chips, D7 − D0 / Modulation (ratio of the level of intensity of expression in log2 in two stages of differentiation) measured with the Agilent chips, FC − D7 / Modulation (ratio of the level of intensity of expression in log2 in two stages of differentiation) measured with the Agilent chips, WD − D0 / Modulation (ratio of the level of intensity of expression in log2 in two stages of differentiation) measured with the Agilent chips, WD − FC / Level of intensity of expression in log2 measured with the Agilent chips, D0 / Level of intensity of expression in log2 measured with the Agilent chips, D7 / Level of intensity of expression in log2 measured with the Agilent chips, FC / Level of intensity of expression in log2 measured with the Agilent chips, WD: Table VI; for Modulation (ratio of the level of intensity of expression in log2 at two stages of differentiation), FC − D7 / Modulation (ratio of the level of intensity of expression in log2 at two stages of differentiation), WD − FC: Agilent miRNA chips, Table V; for Level of intensity of expression in log2 measured with the Agilent chips, D0: stage D0; for Level of intensity of expression in log2 measured with the Agilent chips, D7: stage D7; for Level of intensity of expression in log2 measured with the Agilent chips, FC: stage FC; for Level of intensity of expression in log2 measured with the Agilent chips, WD: stage WD
Method in brief: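 RNA from the same patients' HAECs at four differentiation stages was labelled and hybridized with the Agilent miRNA labeling and hybridization kit. Chips were Human miRNA Microarray v2, with 866 human and 89 viral miRNAs (miRBase v12.0). Profiles were compared with high-throughput sequencing data.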

[2] = test system: human airway epithelial cells (HAECs); assay: High-throughput sequencing (HTS) of miRNAs at four stages of differentiation of HAECs; conditions: for Modulation (ratio of the level of intensity of expression in log2 in two stages of differentiation) measured by high-throughput sequencing, D7 − D0 / Modulation (ratio of the level of intensity of expression in log2 in two stages of differentiation) measured by high-throughput sequencing, FC − D7 / Modulation (ratio of the level of intensity of expression in log2 in two stages of differentiation) measured by high-throughput sequencing, WD − D0 / Modulation (ratio of the level of intensity of expression in log2 in two stages of differentiation) measured by high-throughput sequencing, WD − FC / Level of intensity of expression in log2 measured by high-throughput sequencing, D0 / Level of intensity of expression in log2 measured by high-throughput sequencing, D7 / Level of intensity of expression in log2 measured by high-throughput sequencing, FC / Level of intensity of expression in log2 measured by high-throughput sequencing, WD: Table VI; for Level of intensity of expression in log2 At the differentiated stage (WD) measured in HTS: healthy human airway epithelial tissue; for Level of intensity of expression in log2 measured by high-throughput sequencing, D0: stage D0; for Level of intensity of expression in log2 measured by high-throughput sequencing, D7: stage D7; for Level of intensity of expression in log2 measured by high-throughput sequencing, FC: stage FC; for Level of intensity of expression in log2 At the differentiated stage (WD) measured in HTS / Level of intensity of expression in log2 measured by high-throughput sequencing, WD: stage WD
Method in brief: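 Cells at four air-liquid interface differentiation stages were lysed and total RNA with miRNAs purified. Adaptor Mix A or B ligation (16° C, 2-16 h) allowed 5′ or 3′ end sequencing. Abundance cut-off was 1% of total miRNAs in at least one stage.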

[3] = test system: basal cells and pyramidal cells of the airway epithelium; assay: miRNA expression in sorted basal cells versus pyramidal cells (ciliated + secretory), HTS and Agilent chips; set-up: species or system human; conditions: for Modulation of expression of the miRNAs in pyramidal cells (323(−)) relative to basal cells 323(+): HTS and Agilent chips; for Intensity of the level of expression in log2 in pyramidal cells (323(−)): pyramidal cells (ciliated + secretory)
Method in brief: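 Read-out is miRNA profiling of total RNA, by Agilent chips or by high-throughput sequencing, in two sorted populations. These were basal cells (CD151+/TF+) and pyramidal ciliated/secretory cells (CD151−/TF−) from airway epithelium of 3 donors.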

| Substance | Modulation (ratio of the level of intensity of expression in log2 in two stages of differentiation) measured with the Agilent chips, D7 − D0 [1] | Modulation (ratio of the level of intensity of expression in log2 at two stages of differentiation), FC − D7 [1] | Modulation (ratio of the level of intensity of expression in log2 in two stages of differentiation) measured with the Agilent chips, FC − D7 [1] | Modulation (ratio of the level of intensity of expression in log2 in two stages of differentiation) measured with the Agilent chips, WD − D0 [1] | Modulation (ratio of the level of intensity of expression in log2 at two stages of differentiation), WD − FC [1] | Modulation (ratio of the level of intensity of expression in log2 in two stages of differentiation) measured with the Agilent chips, WD − FC [1] | Level of intensity of expression in log2 measured with the Agilent chips, D0 [1] | Level of intensity of expression in log2 measured with the Agilent chips, D7 [1] | Level of intensity of expression in log2 measured with the Agilent chips, FC [1] | Level of intensity of expression in log2 measured with the Agilent chips, WD [1] | Modulation (ratio of the level of intensity of expression in log2 in two stages of differentiation) measured by high-throughput sequencing, D7 − D0 [2] | Modulation (ratio of the level of intensity of expression in log2 in two stages of differentiation) measured by high-throughput sequencing, FC − D7 [2] | Modulation (ratio of the level of intensity of expression in log2 in two stages of differentiation) measured by high-throughput sequencing, WD − D0 [2] | Modulation (ratio of the level of intensity of expression in log2 in two stages of differentiation) measured by high-throughput sequencing, WD − FC [2] | Level of intensity of expression in log2 At the differentiated stage (WD) measured in HTS [2] | Level of intensity of expression in log2 measured by high-throughput sequencing, D0 [2] | Level of intensity of expression in log2 measured by high-throughput sequencing, D7 [2] | Level of intensity of expression in log2 measured by high-throughput sequencing, FC [2] | Level of intensity of expression in log2 measured by high-throughput sequencing, WD [2] | Modulation of expression of the miRNAs in pyramidal cells (323(−)) relative to basal cells 323(+) [3] | also measured |
| --- | --- | --- | --- | --- | --- | --- | --- | --- | --- | --- | --- | --- | --- | --- | --- | --- | --- | --- | --- | --- | --- |
| hsa-miR-23b: human miRNA, SEQ ID No. 26 (AUCACAUUGCCAGGGAUUACC; expressed or natural sequence; listed as Homo sapiens) | 1.96 log2 | −0.27 log2 | −0.27 log2 | 1.72 log2 | 0.04 log2 | 0.04 log2 | 8.92 log2 | 10.88 log2 | 10.61 log2 | 10.64 log2 | 1.30 log2 | −0.17 log2 | 1.29 log2 | 0.16 log2 | 9.35 log2 | 14.06 log2 | 15.35 log2 | 15.18 log2 | 15.35 log2 | −2.23 | Modulation (ratio of the level of intensity of expression in log2 in two stages of differentiation), D7 − D0 ([2]; HTS): 1.30 log2; Modulation (ratio of the level of intensity of expression in log2 in two stages of differentiation), FC − D7 ([2]; HTS): −0.17 log2; Modulation (ratio of the level of intensity of expression in log2 in two stages of differentiation), WD − FC ([2]; HTS): 0.16 log2; Abundance (%), D0 ([2]; HTS, ALI-D0): 3.73%; Abundance (%), D7 ([2]; HTS, ALI-D7): 9.19%; Abundance (%), FC ([2]; HTS, ALI-FC): 7.92%; Abundance (%), WD ([2]; HTS, ALI-WD): 6.72%; Intensity of the level of expression in log2 in basal cells (323(+)) [3]: 9.41 log2; Intensity of the level of expression in log2 in pyramidal cells (323(−)) [3]: 7.18 log2 |
| hsa-miR-25: human miRNA, SEQ ID No. 27 (CAUUGCACUUGUCUCGGUCUGA; expressed or natural sequence; listed as Homo sapiens) | 1.35 log2 | −0.65 log2 | −0.65 log2 | 0.66 log2 | −0.05 log2 | −0.05 log2 | 7.15 log2 | 8.50 log2 | 7.85 log2 | 7.80 log2 | 0.66 log2 | −0.03 log2 | 0.24 log2 | −0.39 log2 | 3.52 log2 | 9.11 log2 | 9.77 log2 | 9.74 log2 | 9.35 log2 | −0.70 | Intensity of the level of expression in log2 in basal cells (323(+)) [3]: 5.40 log2; Intensity of the level of expression in log2 in pyramidal cells (323(−)) [3]: 4.70 log2 |
